Data set [1] can be described thus: Selectivity index, ratio of LC50 for human U937 cells to EC50 for Leishmania (Viannia) braziliensis HMOM/COL/88/UA301-EGFP intracellular amastigotes infected in human U937 cells. Format: toxicity, cell-based. As to conditions: read-out: Selectivity Index.
Data set [2] has as its system Leishmania braziliensis. The data set is described as follows: Antileishmanial activity against Leishmania (Viannia) braziliensis HMOM/COL/88/UA301-EGFP intracellular amastigotes infected in human U937 cells after 72 hrs by flow cytometric analysis. Format: functional, organism-based. The conditions noted are these: HMOM/COL/88/UA301, U-937, 72 h. (In general: A flow cytometer gives signals particle by particle.)

Data set [3] can be described thus: Cytotoxicity against human U937 cells after 72 hrs by MTT assay. Format: cell-based, U-937. As to conditions: read-out: LC50. (Tetrazolium assays rely on reduction of a dye to a coloured formazan, in cell work by metabolically active cells.)

The EC50 is the midpoint of the concentration-response curve. Higher therefore signals a need for much substance.

As for `C[C@@]12CC[C@@H]3[C@@](CC[C@@H]4[C@](C)(CO)CCC[C@]43C)(CC1)C2`, the selectivity ratio in data set [1] is 1.6. Also, a half-maximal response in data set [2] (EC50) required 18.1 µM. In addition, the CC50 at 72 h in data set [3] came out at 29.6 µM.
In the same order, the values of `CCOC(=O)[C@]1(C)CCC[C@@]2(C)[C@@H]3CC[C@@]4(C)C[C@]3(CC[C@@H]21)C/C4=N/NS(=O)(=O)c1ccc(C)cc1` are 3.5, 3 µM and 8.8 µM.
The matching figures for `C[C@]12CC[C@H]3[C@]4(C)CCC[C@@](C)(C(=O)O)[C@H]4CC[C@@]3(C1)[C@H]1O[C@H]12`: 1.5, 43.3 µM and 64.8 µM.
In the same order, the values of `C[C@@H]1[C@H](O)[C@@H](C)/C=C/C=C/C=C/C=C/C=C/C=C/C=C/[C@H](O[C@@H]2O[C@H](C)[C@@H](O)[C@H](N)[C@@H]2O)C[C@@H]2O[C@](O)(C[C@@H](O)C[C@@H](O)[C@H](O)CC[C@@H](O)C[C@@H](O)CC(=O)O[C@H]1C)C[C@H](O)[C@H]2C(=O)O` [AMPHOTERICIN B] are 71.8, 0.8 µM and 54.4 µM.
On to `CCOC(=O)[C@]1(C)CCC[C@@]2(C)[C@@H]3CC[C@@]4(C)C[C@]3(CC[C@@H]21)C[C@H]4O`, for which the selectivity ratio in data set [1] was found to be 1.4. The same molecule had a concentration for a half-maximal effect (EC50) in data set [2] of 13.6 µM. The CC50 at 72 h in data set [3] was 28.8 µM.
In the same order, the values of `C[C@@]12CC[C@@H]3[C@@](CC[C@H]4[C@@]3(C)CCC[C@@]4(C)C(=O)O)(CC1=O)C2` [ISOSTEVIOL] are greater than 3.3, greater than 20 µM and 66.9 µM.
The matching figures for `Cc1ccc(S(=O)(=O)N/N=C2/C[C@]34CC[C@H]5[C@@](C)(CCC[C@@]5(C)C(=O)O)[C@@H]3CC[C@@]2(C)C4)cc1`: 3.1, 2.3 µM and 5.9 µM.
Turning to `CCOC(=O)[C@]1(C)CCC[C@@]2(C)[C@@H]3CC[C@@]4(C)C[C@]3(CC[C@@H]21)C/C4=N/O`, the selectivity ratio in data set [1] is 1.8. In addition, in data set [2], a half-maximal response (EC50) required 8.8 µM. In addition, the CC50 at 72 h in data set [3] turned out to be 15.7 µM.
In the same order, the values of `C[C@]12CC[C@H]3[C@]4(C)CCC[C@@](C)(CO)[C@H]4CC[C@@]3(C1)[C@H]1O[C@H]12` are greater than 1.9, greater than 63 µM and 118 µM.
Take `CCOC(=O)[C@]1(C)CCC[C@@]2(C)[C@@H]3CC[C@@]4(C)C[C@]3(CC[C@@H]21)CC4=O`: the selectivity ratio in data set [1] was determined as 0.86. For the same molecule, a half-maximal effect in data set [2] (EC50) was put at 36.3 µM. Further, the CC50 at 72 h in data set [3] amounted to 51.9 µM.
The matching figures for `C[C@]12C=C[C@@]3(CC[C@H]4[C@@](C)(CCC[C@@]4(C)C(=O)O)[C@@H]3CC1)C2` [MONOGINOIC ACID]: greater than 2, greater than 66 µM and 130 µM.
In the same order, the values of `CCOC(=O)[C@]1(C)CCC[C@@]2(C)[C@@H]3CC=C(C)C[C@@]3(CC#N)CC[C@@H]21` are 0.6, 14.1 µM and 9.1 µM.

The values above are taken from ChEMBL document CHEMBL4308897, “Antileishmanial activity and cytotoxicity of ent-beyerene diterpenoids” (Bioorg Med Chem, 2019).
